Legend:
[1] = test system: morningglory; experiment: Test B pre/postemergence morningglory; type: in vivo, Ipomoea hederacea; conditions: for Morningglory plant response rating: scale of 0 to 10 where 0 is no effect and 10 is complete control
In short: (§1)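 Herbicidal effect was estimated by eye on a ten-point control scale after plants spent twelve to sixteen days in a greenhouse following soil or foliar treatment. Foliar sprays targeted plants at one to four leaves; all doses were formulated in a non-phytotoxic solvent with surfactant.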

[2] = test system: cocklebur; experiment: Test B pre/postemergence cocklebur; type: in vivo, Xanthium strumarium; conditions: for Cocklebur plant response rating: scale of 0 to 10 where 0 is no effect and 10 is complete control
In short: as §1

[3] = test system: crabgrass; experiment: Test B pre/postemergence crabgrass; type: in vivo, Digitaria sanguinalis; conditions: for Crabgrass plant response rating: scale of 0 to 10 where 0 is no effect and 10 is complete control
In short: as §1

[4] = test system: giant foxtail; experiment: Test B pre/postemergence giant foxtail; type: in vivo, Setaria faberii; conditions: for Giant foxtail plant response rating: scale of 0 to 10 where 0 is no effect and 10 is complete control
In short: as §1

[5] = test system: rice; experiment: Test B flood test rice; type: in vivo, Oryza sativa; conditions: Pre-emergence
In short: (§2)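 Plants were grown to the 2-leaf stage before treatment with test chemical, then held in a greenhouse for twelve to sixteen days. Injury was visually rated against untreated controls on a 0–10 scale, where 0 is no effect and 10 is complete control.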

[6] = test system: bamyardgrass; experiment: Test B flood test barnyardgrass; type: in vivo, Echinochloa crus-galli; conditions: Pre-emergence
In short: as §2

[7] = test system: purple nutsedge; experiment: Test B pre/postemergence purple nutsedge; type: in vivo, Cyperus rotundus; conditions: for Nutsedge plant response rating: scale of 0 to 10 where 0 is no effect and 10 is complete control
In short: as §1

[8] = test system: sugar beet; experiment: Test B pre/postemergence sugar beet; type: in vivo, Beta vulgaris; conditions: for Sugarbeets plant response rating: scale of 0 to 10 where 0 is no effect and 10 is complete control
In short: as §1

[9] = test system: pigweed; experiment: Test B pre/postemergence pigweed; type: in vivo, Amaranthus retroflexus; conditions: for Redroot pigweed plant response rating: scale of 0 to 10 where 0 is no effect and 10 is complete control
In short: as §1

[10] = test system: wild oat; experiment: Test B pre/postemergence wild oat; type: in vivo, Avena fatua; conditions: for Wild oats plant response rating: scale of 0 to 10 where 0 is no effect and 10 is complete control
In short: as §1

[11] = test system: velvetleaf; experiment: Test B pre/postemergence velvetleaf; type: in vivo, Abutilon theophrasti; conditions: for Velvetleaf plant response rating: scale of 0 to 10 where 0 is no effect and 10 is complete control
In short: as §1

[12] = test system: soybean; experiment: Test B pre/postemergence soybean; type: in vivo, Glycine max; conditions: for Soybean plant response rating: scale of 0 to 10 where 0 is no effect and 10 is complete control
In short: as §1

[13] = test system: wheat; experiment: Test B pre/postemergence wheat; type: in vivo, Triticum aestivum; conditions: for Wheat plant response rating: scale of 0 to 10 where 0 is no effect and 10 is complete control
In short: as §1

[14] = test system: rape; experiment: Test B pre/postemergence rape; type: in vivo, Brassica napus; conditions: for Rape plant response rating: scale of 0 to 10 where 0 is no effect and 10 is complete control
In short: as §1

[15] = test system: corn; experiment: Test B pre/postemergence corn; type: in vivo, Zea mays; conditions: for Corn plant response rating: scale of 0 to 10 where 0 is no effect and 10 is complete control
In short: as §1

[16] = test system: duck salad; experiment: Test B flood test duck salad; type: in vivo, Heteranthera limosa; conditions: Pre-emergence
In short: as §2

[17] = Postemergence, Rate 125 g/ha, scale 0 to 10, 0 is no effect, 10 is complete control
[18] = Postemergence, Rate 250 g/ha, scale 0 to 10, 0 is no effect, 10 is complete control
[19] = Preemergence, Rate 62 g/ha, scale 0 to 10 (0 no effect, 10 complete control)
[20] = Rate 500 g/ha, Postemergence, scale 0 to 10, 0 no effect, 10 complete control
[21] = Rate 62 g/ha, flood test species, visual evaluation after twelve to sixteen days
[22] = Rate 125 g/ha, flood test species, scale 0 to 10 where 0 is no effect and 10 is complete control
[23] = Rate 250 g/ha, flood-test species, scale 0 to 10, 0 is no effect, 10 is complete control
[24] = Rate 500 g/ha, flood test species, scale 0 to 10 (0 no effect, 10 complete control)

With CC(C)N(C(=O)n1oc(=O)n(C(C)CCl)c1=O)c1ccc(F)cc1 (stereo not shown) [Compound 367] the “Plant response rating, Morningglory” value [1, 17] was 5, the “Plant response rating, Morningglory” value [1, 18] was 6 and the “Plant response rating, Morningglory” value [1, 19] was 0. The “Morningglory plant response rating (0 to 10 scale)” value ([1]; Preemergence, Rate 125 g/ha) was 0, the “Morningglory plant response rating” value ([1]; Preemergence, Rate 250 g/ha) was 0 and the “Morningglory plant response rating” value ([1]; Preemergence, Rate 500 g/ha) was 2. The “Morningglory plant response rating” value ([1]; Rate 62 g/ha, Postemergence) was 5, the “Plant response rating, Morningglory” value [1, 20] was 7 and the “Plant response rating, Cocklebur” value [2, 17] was 0. For the same compound, the “Plant response rating, Cocklebur” value [2, 18] was 0, the “Plant response rating, Cocklebur” value [2, 19] was 0 and the “Cocklebur plant response rating (0 to 10 scale)” value ([2]; Preemergence, Rate 125 g/ha) was 0. The “Cocklebur plant response rating” value ([2]; Preemergence, Rate 250 g/ha) was 0, the “Cocklebur plant response rating” value ([2]; Rate 62 g/ha, Postemergence) was 0 and the “Plant response rating, Cocklebur” value [2, 20] was 2. The “Plant response rating, Crabgrass” value [3, 17] was 2, the “Plant response rating, Crabgrass” value [3, 18] was 8 and the “Plant response rating, Crabgrass” value [3, 19] was 6. The “Crabgrass plant response rating (0 to 10 scale)” value ([3]; Preemergence, Rate 125 g/ha) was 9, the “Crabgrass plant response rating” value ([3]; Preemergence, Rate 250 g/ha) was 10 and the “Crabgrass plant response rating” value ([3]; Preemergence, Rate 500 g/ha) was 10. The “Crabgrass plant response rating” value ([3]; Rate 62 g/ha, Postemergence) was 0, the “Plant response rating, Crabgrass” value [3, 20] was 8 and the “Plant response rating, Giant foxtail” value [4, 17] was 3. For the same compound, the “Plant response rating, Giant foxtail” value [4, 18] was 8, the “Plant response rating, Giant foxtail” value [4, 19] was 10 and the “Giant foxtail plant response rating (0 to 10 scale)” value ([4]; Preemergence, Rate 125 g/ha) was 10. For the same compound, the “Giant foxtail plant response rating” value ([4]; Preemergence, Rate 250 g/ha) was 10, the “Giant foxtail plant response rating” value ([4]; Preemergence, Rate 500 g/ha) was 10 and the “Giant foxtail plant response rating” value ([4]; Rate 62 g/ha, Postemergence) was 0. For the same compound, the “Plant response rating, Giant foxtail” value [4, 20] was 8, the “Plant response rating, Rice (0 to 10 scale, 0 is no effect, 10 is complete control)” value [5, 21] was 0 and the “Rice plant response rating” value [5, 22] was 0. The “Rice plant response rating” value [5, 23] was 0, the “Rice plant response rating” value [5, 24] was 0 and the “Plant response rating, Barnyardgrass (0 to 10 scale, 0 is no effect, 10 is complete control)” value [6, 21] was 0. For the same compound, the “Barnyardgrass plant response rating” value [6, 22] was 0, the “Barnyardgrass plant response rating” value [6, 23] was 0 and the “Barnyardgrass plant response rating” value [6, 24] was 0. For the same compound, the “Plant response rating, Nutsedge” value [7, 17] was 0, the “Plant response rating, Nutsedge” value [7, 18] was 0 and the “Plant response rating, Nutsedge” value [7, 19] was 0. For the same compound, the “Nutsedge plant response rating (0 to 10 scale)” value ([7]; Preemergence, Rate 125 g/ha) was 0, the “Nutsedge plant response rating” value ([7]; Preemergence, Rate 250 g/ha) was 0 and the “Nutsedge plant response rating” value ([7]; Preemergence, Rate 500 g/ha) was 0. The “Nutsedge plant response rating” value ([7]; Rate 62 g/ha, Postemergence) was 0, the “Plant response rating, Nutsedge” value [7, 20] was 3 and the “Plant response rating, Sugarbeets” value [8, 17] was 0. The “Plant response rating, Sugarbeets” value [8, 18] was 0, the “Plant response rating, Sugarbeets” value [8, 19] was 2 and the “Sugarbeets plant response rating (0 to 10 scale)” value ([8]; Preemergence, Rate 125 g/ha) was 4. For the same compound, the “Sugarbeets plant response rating” value ([8]; Preemergence, Rate 250 g/ha) was 7, the “Sugarbeets plant response rating” value ([8]; Preemergence, Rate 500 g/ha) was 9 and the “Sugarbeets plant response rating” value ([8]; Rate 62 g/ha, Postemergence) was 0. The “Plant response rating, Sugarbeets” value [8, 20] was 7, the “Plant response rating, Redroot pigweed” value [9, 17] was 0 and the “Plant response rating, Redroot pigweed” value [9, 18] was 0. The “Plant response rating, Redroot pigweed” value [9, 19] was 10, the “Redroot pigweed plant response rating (0 to 10 scale)” value ([9]; Preemergence, Rate 125 g/ha) was 10 and the “Redroot pigweed plant response rating” value ([9]; Preemergence, Rate 250 g/ha) was 10. For the same compound, the “Redroot pigweed plant response rating” value ([9]; Preemergence, Rate 500 g/ha) was 10, the “Redroot pigweed plant response rating” value ([9]; Rate 62 g/ha, Postemergence) was 0 and the “Plant response rating, Redroot pigweed” value [9, 20] was 7. The “Plant response rating, Wild oats” value [10, 17] was 0, the “Plant response rating, Wild oats” value [10, 18] was 0 and the “Plant response rating, Wild oats” value [10, 19] was 0. For the same compound, the “Wild oats plant response rating (0 to 10 scale)” value ([10]; Preemergence, Rate 125 g/ha) was 3, the “Wild oats plant response rating” value ([10]; Preemergence, Rate 250 g/ha) was 3 and the “Wild oats plant response rating” value ([10]; Preemergence, Rate 500 g/ha) was 7. The “Wild oats plant response rating” value ([10]; Rate 62 g/ha, Postemergence) was 0, the “Plant response rating, Wild oats” value [10, 20] was 8 and the “Plant response rating, Velvetleaf” value [11, 17] was 2. The “Plant response rating, Velvetleaf” value [11, 18] was 2, the “Plant response rating, Velvetleaf” value [11, 19] was 3 and the “Velvetleaf plant response rating (0 to 10 scale)” value ([11]; Preemergence, Rate 125 g/ha) was 3. The “Velvetleaf plant response rating” value ([11]; Preemergence, Rate 250 g/ha) was 5, the “Velvetleaf plant response rating” value ([11]; Preemergence, Rate 500 g/ha) was 6 and the “Velvetleaf plant response rating” value ([11]; Rate 62 g/ha, Postemergence) was 0. For the same compound, the “Plant response rating, Velvetleaf” value [11, 20] was 3, the “Plant response rating, Soybean” value [12, 17] was 1 and the “Plant response rating, Soybean” value [12, 18] was 1. For the same compound, the “Plant response rating, Soybean” value [12, 19] was 0, the “Soybean plant response rating (0 to 10 scale)” value ([12]; Preemergence, Rate 125 g/ha) was 0 and the “Soybean plant response rating” value ([12]; Preemergence, Rate 250 g/ha) was 0. For the same compound, the “Soybean plant response rating” value ([12]; Preemergence, Rate 500 g/ha) was 0, the “Soybean plant response rating” value ([12]; Rate 62 g/ha, Postemergence) was 0 and the “Plant response rating, Soybean” value [12, 20] was 2. The “Plant response rating, Wheat” value [13, 17] was 0, the “Plant response rating, Wheat” value [13, 18] was 0 and the “Plant response rating, Wheat” value [13, 19] was 0. The “Wheat plant response rating (0 to 10 scale)” value ([13]; Preemergence, Rate 125 g/ha) was 0, the “Wheat plant response rating” value ([13]; Preemergence, Rate 250 g/ha) was 0 and the “Wheat plant response rating” value ([13]; Preemergence, Rate 500 g/ha) was 0. The “Wheat plant response rating” value ([13]; Rate 62 g/ha, Postemergence) was 0, the “Plant response rating, Wheat” value [13, 20] was 6 and the “Plant response rating, Rape” value [14, 17] was 0. For the same compound, the “Plant response rating, Rape” value [14, 18] was 0, the “Plant response rating, Rape” value [14, 19] was 0 and the “Rape plant response rating (0 to 10 scale)” value ([14]; Preemergence, Rate 125 g/ha) was 3. The “Rape plant response rating” value ([14]; Preemergence, Rate 250 g/ha) was 5, the “Rape plant response rating” value ([14]; Preemergence, Rate 500 g/ha) was 10 and the “Rape plant response rating” value ([14]; Rate 62 g/ha, Postemergence) was 0. The “Plant response rating, Rape” value [14, 20] was 4, the “Plant response rating, Corn” value [15, 17] was 0 and the “Plant response rating, Corn” value [15, 18] was 0. For the same compound, the “Plant response rating, Corn” value [15, 19] was 0, the “Corn plant response rating (0 to 10 scale)” value ([15]; Preemergence, Rate 125 g/ha) was 0 and the “Corn plant response rating” value ([15]; Preemergence, Rate 250 g/ha) was 2. The “Corn plant response rating” value ([15]; Preemergence, Rate 500 g/ha) was 5, the “Corn plant response rating” value ([15]; Rate 62 g/ha, Postemergence) was 0 and the “Plant response rating, Corn” value [15, 20] was 0. The “Plant response rating, Ducksalad (0 to 10 scale, 0 is no effect, 10 is complete control)” value [16, 21] was 0, the “Ducksalad plant response rating” value [16, 22] was 0 and the “Ducksalad plant response rating” value [16, 23] was 0. The “Ducksalad plant response rating” value [16, 24] was 0.

Source: patent publication US6737383B1, “Herbicidal oxadiazolidines” (priority 1999, dated 2004)
